Measured values published in patent US20070004759A1, “Fungicidal mixtures for controlling rice pathogens” (priority 2004, published 2007).

Test system: Cochliobolus miyabeanus
Test: Activity against brown spot of rice caused by Cochliobolus miyabeanus, protective application
Type: in vivo
Conditions: individual active compound, rice seedlings cultivar Tai-Nong 67, protective spray, evaluated six days after inoculation
Protocol: The active compounds, separately or jointly, were prepared as a stock solution with 0.25% by weight of active compound in acetone or DMSO. 1% by weight of the emulsifier Uniperol® EL (wetting agent having emulsifying and dispersing action based on ethoxylated alkylphenols) was added to this solution, and the solution was diluted with water to the desired concentration.
Leaves of potted rice seedlings of the cultivar “Tai-Nong 67” were sprayed to runoff point with an aqueous suspension of the concentration of active compound stated below. The next day, the plants were inoculated with an aqueous spore suspension of Cochliobolus miyabeanus. The test plants were then placed in climatized chambers at 22-24° C. and 95-99% relative atmospheric humidity for six days. The extent of the development of the infection on the leaves was then determined visually.
Evaluation is carried out by determining the percentage of infected plants. These percentages were converted into efficacies.
The efficacy (E) is calculated as follows using Abbot's formula: E=(1−α/β)·100
α corresponds to the fungicidal infection of the treated plants in % and
β corresponds to the fungicidal infection of the untreated (control) plants in %
An efficacy of 0 means that the infection level of the treated plants corresponds to that of the untreated control plants; an efficacy of 100 means that the treated plants are not infected.
The expected efficacies of mixtures of active compounds are determined using Colby's formula (Colby, R. S., Weeds, 15, 20-22, 1967) and compared with the observed efficacies.
Colby's formula: E=x+y−x·y/100 • E expected efficacy, expressed in % of the untreated control, when using the mixture of the active compounds A and B at the concentrations a and b • x efficacy, expressed in % of the untreated control, when using the active compound A at the concentration a • y efficacy, expressed in % of the untreated control, when using the active compound B at the concentration b

For `C[C@H](Nc1c(-c2c(F)cc(F)cc2Cl)c(Cl)nc2ncnn12)C(F)(F)F` [B], which “Efficacy in % of the untreated control” value (4 ppm in the spray liquor) is on record?
The value was 5%.

What about the “Efficacy in % of the untreated control” value (16 ppm in the spray liquor) of the same compound?
The value was 41%.

Which “Efficacy in % of the untreated control” value (4 ppm in the spray liquor) does the source give for `CC1(C(=O)Nc2ccc(O)c(Cl)c2Cl)CCCCC1` [compound II, N-(2,3-dichloro-4-hydroxyphenyl)-1-methylcyclohexanecarboxamide] here?
The value was 0%.

What about the “Efficacy in % of the untreated control” value (16 ppm in the spray liquor) of the same compound?
Its value is 0%.

Which results are given for `CC1CCN(c2c(-c3c(F)cc(F)cc3F)c(Cl)nc3ncnn23)CC1` [compound I, 5-chloro-7-(4-methylpiperidin-1-yl)-6-(2,4,6-trifluorophenyl)-[1,2,4]triazolo[1,5-a]pyrimidine]?
Efficacy in % of the untreated control (4 ppm in the spray liquor): 5%; Efficacy in % of the untreated control (16 ppm in the spray liquor): 17%

`CC1CCN(c2c(-c3c(F)cccc3Cl)c(Cl)nc3ncnn23)CC1` [A] was tested. Which “Efficacy in % of the untreated control” value (4 ppm in the spray liquor) did it give?
Its value is 29%.

And the “Efficacy in % of the untreated control” value (16 ppm in the spray liquor)?
The value was 53%.
